In experiment [1] the target is T1, human alpha 7-wt nAChR-expressing GH4C1 cells (Homo sapiens, UniProt P36544).
T1 construct: expressed in transfected cells
The experiment is described as follows: Patch-clamp current recording (whole-cell voltage-clamp, PAM type classification). Type of experiment: cell-based. On the set-up: key: Type 0 compounds minimally change the effect size of the current elicited by 1 mM choline.; Type 1 compounds enhance the effect size of the current elicited by 1 mM choline but minimally alter the kinetics of the receptor.; Type 2 compounds enhance the effect size of the current elicited by 1 mM choline while reducing the rate and/or the extent of desensitization.; Type 3 compounds enhance the effect size of the current elicited by 1 mM choline. When tested at higher concentrations up to 10 μM they completely inhibit desensitization; Type 4 compounds allow for an initial desensitization of the receptor followed by a re-opening of the receptor during agonist application. The note with it: 1 mM choline. How it is done: The compounds of the present invention are classified as type 1-4, based on qualitative kinetic properties, as determined by whole-cell voltage-clamp recordings. This classification is based on the effect of an alpha 7 PAM compound, as described hereinbefore, on the signal elicited by an agonist application. In particular, said agonist is choline at a concentration of 1 mM. In a preferred experimental setting, said alpha 7 PAM compound and choline are simultaneously applied to the cell, as described hereinafter. Desensitization is defined as the closure of the receptor upon activation during the application of the agonist in whole-cell voltage-clamp electrophysiology measurements seen as the reduction of the […] current after initial activation by the agonist.
The definition of the PAM types 1-4 is described hereinafter: • Type 0 compounds minimally change the effect size of the current elicited by 1 mM choline. • Type 1 compounds enhance the effect size of the current elicited by 1 mM choline but minimally alter the kinetics of the receptor. In particular, the rate and the extent of desensitization and of deactivation of the receptor elicited by the agonist is not affected. The compound-modulated response to 1 mM choline, therefore, is close to a linear scaling of the 1 mM choline response in absence of the alpha 7 PAM compound. • Type 2 compounds enhance the effect size of the current elicited by 1 mM choline while reducing the rate and/or the extent of desensitization. Deactivation of the receptor is generally unaffected. • Type 3 compounds enhance the effect size of the current elicited by 1 mM choline. […] Deactivation of the receptor may be slowed down • Type 4 compounds allow for an initial desensitization of the receptor followed by a re-opening of the receptor during agonist application. At low-potency concentrations of the alpha 7 PAM compound, the agonist-induced activation, which is followed by desensitization, can still be separated from the compound-induced re-opening as an initial inward current-maximum. At higher potency concentrations of the alpha 7 PAM compound, the re-opening occurs faster than the closure due to desensitization so that the initial current-maximum disappears.
A compound was considered to have interesting PAM-like activity when the potentiation of the peak current was at least 200% compared to the control choline response (=100%). Such compounds are classified as belonging to a particular PAM type in the Experimental Part. Compounds not meeting the condition are not classified as belonging to a particular PAM-type.
The compounds also have a potentiating effect on the response to choline when measured by whole-cell patch clamp electrophysiology in GH4C1 cells stably over-expressing the human wild-type alpha 7 receptor.
Patch-clamp recording from mammalian cells has provided a powerful means of assessing the function of membrane-bound proteins thought to be subunits of ligand-gated ion channels. Activation of such proteins by endogenous or exogenous ligands cause opening of a pore associated with the receptor through which ions flow down their electrochemical gradient. In the case of the human alpha 7-wt nAChR-expressing GH4C1 recombinant cell line the preferential permeability to calcium of this receptor means that calcium flows into the cell upon activation by ACh, choline and other nicotinic ligands giving rise to a calcium current. Since this receptor rapidly desensitizes in the presence of agonist it is important that an application system is used which is capable of very rapid switching of solutions (<100 ms) to prevent partial or full desensitisation of receptor responses coincident with the time of agonist application. Consequently, a second convenient technique to assess the enhancement of nicotinic efficacy is a patch-clamp recording from human alpha 7-wt nAChR-expressing GH4C1 cells coupled with a rapid-application system. […]

The target in the next experiment is T2, human alpha 7-wt nAChR (Homo sapiens, UniProt P36544).
T2 construct: expressed in transfected cells
The experiment is described as follows: Ca2+ flux imaging (FDSS) (Protocol B). Type of experiment: cell-based. The note with it: for EC50: potentiation of 100 μM choline, compounds 0.01 μM to 30 μM, read-out: a7-PAM-G_[33]_pEC50 pEC50 (converted); for Emax: efficacy of 100 μM choline defined as 100% in the absence of a PAM, read-out: a7-PAM-G_[33]_Eff_Curve_FI % Efficacy. Put shortly: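 Fluo-4AM-loaded cells expressing human α7-wt nAChR, in HBSS with 10 mM HEPES, 5 mM CaCl2, 0.1% BSA, received compound (0.01–30 μM), typically 10 min before 100 μM choline, with calcium flux read in real time. Potentiation is relative to choline alone (100%); EC50 from sigmoidal curves.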

The source of these data is US8637510B2, “Morpholinothiazoles as alpha 7 positive allosteric modulators” (Janssen Pharmaceutica NV, priority 2009, dated 2014).

T1 sequence (P36544 23-502): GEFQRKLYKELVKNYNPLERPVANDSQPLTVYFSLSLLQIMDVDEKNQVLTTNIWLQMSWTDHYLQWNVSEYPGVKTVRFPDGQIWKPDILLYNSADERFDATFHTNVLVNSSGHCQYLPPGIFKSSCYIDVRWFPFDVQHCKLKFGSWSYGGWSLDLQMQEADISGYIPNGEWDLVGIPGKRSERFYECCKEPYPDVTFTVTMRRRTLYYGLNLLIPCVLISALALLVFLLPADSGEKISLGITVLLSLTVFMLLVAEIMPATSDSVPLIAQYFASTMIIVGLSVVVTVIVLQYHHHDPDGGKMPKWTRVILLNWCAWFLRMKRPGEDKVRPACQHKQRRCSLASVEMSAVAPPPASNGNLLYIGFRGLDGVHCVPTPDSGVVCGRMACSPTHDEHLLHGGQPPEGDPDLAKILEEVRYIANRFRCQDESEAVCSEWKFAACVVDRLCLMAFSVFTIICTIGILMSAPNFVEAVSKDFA
T2 sequence (P36544 23-502): as above

For `Cc1cc(-c2sc(N3CCOC(C)C3)nc2CNC(=O)c2conc2C)cc(C)n1` (single isomer, unassigned) [Compound 73, N-[[5-(2,6-dimethyl-4-pyridinyl)-2-[(2R*)-2-methyl-4-morpholinyl]-4-thiazolyl]methyl]-3-methyl-4-isoxazolecarboxamide], in experiment [1], the “PAM_Type PAM type” value was 2. At human alpha 7-wt nAChR, the EC50 was 724 nM.

Consider `Cc1cc(-c2sc(N3C[C@@H](C)O[C@@H](C)C3)nc2CNC(=O)CC(F)(F)F)cc(C)n1` [Compound 168, N-[[2-[(2R,6S)-2,6-dimethyl-4-morpholinyl]-5-(2,6-dimethyl-4-pyridinyl)-4-thiazolyl]methyl]-3,3,3-trifluoro-propanamide], for which, in experiment [1], the “PAM_Type PAM type” value is recorded as 1. Besides, on human alpha 7-wt nAChR, the Emax worked out at 924% and the EC50 is 69.2 nM.

Regarding `Cc1cc(-c2sc(N3C[C@@H](C)O[C@@H](C)C3)nc2CNC(=O)c2oncc2C)cc(C)n1` [Compound 148, N-[[2-[(2R,6S)-2,6-dimethyl-4-morpholinyl]-5-(2,6-dimethyl-4-pyridinyl)-4-thiazolyl]methyl]-4-methyl-5-isoxazolecarboxamide], the “PAM_Type PAM type” value in experiment [1] was determined as 0. Moreover, on human alpha 7-wt nAChR, the EC50 was 1230 nM.

Regarding `Cc1cc(-c2sc(N3C[C@@H](C)O[C@@H](C)C3)nc2CNC(=O)c2ccccc2Cl)cc(C)n1` [Compound 5, 2-chloro-N-[[2-[(2R,6S)-2,6-dimethyl-4-morpholinyl]-5-(2,6-dimethyl-4-pyridinyl)-4-thiazolyl]methyl]-benzamide], the “PAM_Type PAM type” value in experiment [1] is recorded as 2. For the same compound, at human alpha 7-wt nAChR, the Emax worked out at 568% and the EC50 was 135 nM.

For `Cc1cc(-c2sc(N3C[C@@H](C)O[C@@H](C)C3)nc2CNC(=O)c2cccc(C#N)c2)cc(C)n1` [Compound 12, 3-cyano-N-[[2-[(2R,6S)-2,6-dimethyl-4-morpholinyl]-5-(2,6-dimethyl-4-pyridinyl)-4-thiazolyl]methyl]-benzamide], in experiment [1], the “PAM_Type PAM type” value was 2. Moreover, on human alpha 7-wt nAChR, the Emax is 595% and the EC50 was 550 nM.

On to `Cc1cc(-c2sc(N3C[C@@H](C)O[C@@H](C)C3)nc2CNC(=O)COCC(F)(F)F)cc(C)n1` [Compound 175, N-[[2-[(2R,6S)-2,6-dimethyl-4-morpholinyl]-5-(2,6-dimethyl-4-pyridinyl)-4-thiazolyl]methyl]-2-(2,2,2-trifluoroethoxy)-acetamide], for which the “PAM_Type PAM type” value in experiment [1] turned out to be 1. Moreover, the EC50 at human alpha 7-wt nAChR is 525 nM.

In the case of `Cc1cc(-c2sc(N3C[C@@H](C)O[C@@H](C)C3)nc2CNC(=O)c2ccc(S(N)(=O)=O)cc2)cc(C)n1` [Compound 144, 4-(aminosulfonyl)-N-[[2-[(2R,6S)-2,6-dimethyl-4-morpholinyl]-5-(2,6-dimethyl-4-pyridinyl)-4-thiazolyl]methyl]-benzamide], the “PAM_Type PAM type” value in experiment [1] amounted to 2. Further, at human alpha 7-wt nAChR, the EC50 was 2140 nM.

As to `Cc1cc(-c2sc(N3C[C@@H](C)O[C@@H](C)C3)nc2CNC(=O)c2ccc(Cl)cc2Cl)cc(C)n1` [Compound 10, 2,4-dichloro-N-[[2-[(2R,6S)-2,6-dimethyl-4-morpholinyl]-5-(2,6-dimethyl-4-pyridinyl)-4-thiazolyl]methyl]-benzamide], the “PAM_Type PAM type” value in experiment [1] was found to be 2. Further, on human alpha 7-wt nAChR, the Emax came out at 630% and the EC50 is 83.2 nM.

Take `Cc1cc(-c2sc(N3C[C@@H](C)O[C@@H](C)C3)nc2CNC(=O)C2CCC2)cc(C)n1` [Compound 2, N-[[2-[(2R,6S)-2,6-dimethyl-4-morpholinyl]-5-(2,6-dimethyl-4-pyridinyl)-4-thiazolyl]methyl]-cyclobutanecarboxamide]: the “PAM_Type PAM type” value in experiment [1] stood at 2. At human alpha 7-wt nAChR, the EC50 was 67.6 nM.

On to `Cc1cc(-c2sc(N3C[C@@H](C)O[C@@H](C)C3)nc2CNC(=O)c2cccnc2C)cc(C)n1` [Compound 17, N-[[2-[(2R,6S)-2,6-dimethyl-4-morpholinyl]-5-(2,6-dimethyl-4-pyridinyl)-4-thiazolyl]methyl]-2-methyl-3-pyridinecarboxamide], for which the “PAM_Type PAM type” value in experiment [1] was determined as 2. In addition, at human alpha 7-wt nAChR, the Emax amounted to 499% and the EC50 is 1000 nM.

As to `Cc1cc(-c2sc(N3C[C@@H](C)O[C@@H](C)C3)nc2CNC(=O)c2ccc(OC(F)(F)F)cc2)cc(C)n1` [Compound 11, N-[[2-[(2R,6S)-2,6-dimethyl-4-morpholinyl]-5-(2,6-dimethyl-4-pyridinyl)-4-thiazolyl]methyl]-4-(trifluoromethoxy)-benzamide], in experiment [1], the “PAM_Type PAM type” value is 2. On human alpha 7-wt nAChR, the Emax turned out to be 703% and the EC50 is 813 nM.

Consider `Cc1cc(-c2sc(N3CCOC(C(F)(F)F)C3)nc2CNC(=O)c2ccc(F)cc2C)cc(C)n1` (stereo not shown) [Compound 193, N-[[5-(2,6-dimethyl-4-pyridinyl)-2-[2-(trifluoromethyl)-4-morpholinyl]-4-thiazolyl]methyl]-4-fluoro-2-methyl-benzamide], for which the “PAM_Type PAM type” value in experiment [1] stood at 4. Also, the EC50 on human alpha 7-wt nAChR is 20.9 nM.

Take `Cc1cc(F)ccc1C(=O)NCc1nc(N2C[C@@H](C)O[C@@H](C)C2)sc1-c1ccnc(C(F)(F)F)c1` [Compound 198, N-[[2-[(2R,6S)-2,6-dimethyl-4-morpholinyl]-5-[2-(trifluoromethyl)-4-pyridinyl]-4-thiazolyl]methyl]-4-fluoro-2-methyl-benzamide]: the “PAM_Type PAM type” value in experiment [1] is on record as 1. Moreover, on human alpha 7-wt nAChR, the EC50 is 148 nM.

Regarding `Cc1cc(-c2sc(N3C[C@@H](C)O[C@@H](C)C3)nc2CNC(=O)c2ccc(F)cc2F)cc(C)n1` [Compound 13, N-[[2-[(2R,6S)-2,6-dimethyl-4-morpholinyl]-5-(2,6-dimethyl-4-pyridinyl)-4-thiazolyl]methyl]-2,4-difluoro-benzamide], the “PAM_Type PAM type” value in experiment [1] is on record as 2. Besides, on human alpha 7-wt nAChR, the Emax is 593% and the EC50 was 288 nM.

On to `COc1cc(-c2sc(N3C[C@@H](C)O[C@@H](C)C3)nc2CNC(=O)c2conc2C)cc(C)n1` [Compound 81, N-[[2-[(2R,6S)-2,6-dimethyl-4-morpholinyl]-5-(2-methoxy-6-methyl-4-pyridinyl)-4-thiazolyl]methyl]-3-methyl-4-isoxazolecarboxamide], for which the “PAM_Type PAM type” value in experiment [1] was 2. For the same compound, on human alpha 7-wt nAChR, the Emax is 384% and the EC50 was 295 nM.

Consider `Cc1cc(-c2sc(N3C[C@@H](C)O[C@@H](C)C3)nc2CNC(=O)Cc2c(C)noc2C)cc(C)n1` [Compound 166, N-[[2-[(2R,6S)-2,6-dimethyl-4-morpholinyl]-5-(2,6-dimethyl-4-pyridinyl)-4-thiazolyl]methyl]-3,5-dimethyl-4-isoxazoleacetamide], for which the “PAM_Type PAM type” value in experiment [1] was determined as 1. Besides, the EC50 at human alpha 7-wt nAChR was 525 nM.

In the case of `Cc1cc(-c2sc(N3C[C@@H](C)O[C@@H](C)C3)nc2CNC(=O)c2cccc(Cl)c2)cc(C)n1` [Compound 9, 3-chloro-N-[[2-[(2R,6S)-2,6-dimethyl-4-morpholinyl]-5-(2,6-dimethyl-4-pyridinyl)-4-thiazolyl]methyl]-benzamide], in experiment [1], the “PAM_Type PAM type” value is listed as 2. Also, on human alpha 7-wt nAChR, the Emax was determined as 566% and the EC50 was 240 nM.
